Test system: gene expression in D04 melanoma cells
Assay: RNA-Seq differential expression analysis (DESeq2)
Format: cell-based, human
Experimental: Total RNA was isolated using the RNeasy mini Kit (QIAGEN) following the manufacturer's protocol. Quality check for extracted RNA was done using 2100 Bioanalyzer (Agilent Technologies, USA) or Tapestation System (Agilent Technologies, USA). […] For samples used for identification of MAPK-responsive lncRNAs, paired-end, 101-bp sequencing was performed by Centrillion Genomic Services (Centrillion Biosciences, USA) on an Illumina HiSeq 2000. For DE gene analysis of ASO-transfected D04 samples, paired-end, 2×150-bp sequencing was performed by Genewiz (USA) on a Illumina HiSeq.
Sequence reads were aligned to the human genome (hg19) using TopHat (Version 2.0.11).
Differential expression (DE) analysis was done using DESeq2. Differentially expressed genes were defined by more than 1.5-fold changes (log 2 >0.58 or <−0.58) in expression with FDR<0.05. GO term analysis was done using DAVID Functional Annotation Clustering analysis.
To examine the biomolecular changes upon TRASH-inhibition in melanoma, D04 cells were treated with TRASH-ASOs (SEQ ID NO:15) and Control-ASOs and RNA was extracted and used for RNA-Seq. […] These GO terms consisted of genes encoding growth factors, tyrosine kinases, G protein coupled receptor subunits, and collagen subunits. Scatter plot diagram showing differential gene expression after TRASH-ASO treatment compared to Control-ASO treatment. (cut-off for significance was adjusted p-value <0.05). Data was obtained from RNA-Seq of D04 melanoma cells, treatment period was three days. (FIG. 5c)

## GACTGGAGATAATTAA (gapmer, pattern not given here) [SEQ ID NO: 15, GapmeR ASO targeting AC004540.4 (TRASH), exon region of both isoforms; used for in vitro experiments]
LINC00689 (ENSG00000231419)
  log2FoldChange: 1.29
LINC00707 (ENSG00000238266)
  log2FoldChange: 1.936
LINC00879 (ENSG00000239589)
  log2FoldChange: −0.6051
LINC00957 (ENSG00000235314)
  log2FoldChange: 1.503
LINC00973 (ENSG00000240476)
  log2FoldChange: 1.339
LINC01204 (ENSG00000229563)
  log2FoldChange: 1.543
LINC01444 (ENSG00000264301)
  log2FoldChange: 1.479
LINC01468 (ENSG00000231131)
  log2FoldChange: 1.433
LINC01505 (ENSG00000234323)
  log2FoldChange: −0.6329
LINC01583 (ENSG00000259518)
  log2FoldChange: 1.348
LINC01638 (ENSG00000233521)
  log2FoldChange: 1.544
LINC01770 (ENSG00000225285)
  log2FoldChange: −0.5999
LINC02009 (ENSG00000283646)
  log2FoldChange: 2.6101
LINC02109 (ENSG00000259786)
  log2FoldChange: −0.684
LINC02302 (ENSG00000258998)
  log2FoldChange: 1.424
LINC02506 (ENSG00000251129)
  log2FoldChange: −0.687
LINC02551 (ENSG00000254842)
  log2FoldChange: 1.274
LOXL2 (ENSG00000134013)
  log2FoldChange: −0.5824
LOXL3 (ENSG00000115318)
  log2FoldChange: −0.6239
LPAR1 (ENSG00000198121)
  log2FoldChange: −0.683
LRRC2 (ENSG00000163827)
  log2FoldChange: 1.394
LRRC17 (ENSG00000128606)
  log2FoldChange: −0.6716
LRRK1 (ENSG00000154237)
  log2FoldChange: −0.6611
MACROD2 (ENSG00000172264)
  log2FoldChange: −0.705
MAML2 (ENSG00000184384)
  log2FoldChange: −0.6085
MAP3K3 (ENSG00000198909)
  log2FoldChange: −0.63
MAP3K7CL (ENSG00000156265)
  log2FoldChange: 1.53
MAP7D2 (ENSG00000184368)
  log2FoldChange: 1.513
MATN1 (ENSG00000162510)
  log2FoldChange: 1.294
MCF2L (ENSG00000126217)
  log2FoldChange: 3.367
MECR (ENSG00000116353)
  log2FoldChange: −0.6676
MEGF9 (ENSG00000106780)
  log2FoldChange: −0.634
MEIS1 (ENSG00000143995)
  log2FoldChange: −0.6955
MLLT1 (ENSG00000130382)
  log2FoldChange: −0.682
MMP3 (ENSG00000149968)
  log2FoldChange: 1.815
MPP4 (ENSG00000082126)
  log2FoldChange: 1.479
MRGPRX4 (ENSG00000179817)
  log2FoldChange: 1.367
MSANTD2 (ENSG00000120458)
  log2FoldChange: −0.6954
MUC4 (ENSG00000145113)
  log2FoldChange: 2.706
MVB12B (ENSG00000196814)
  log2FoldChange: −0.6767
MYBPH (ENSG00000133055)
  log2FoldChange: −0.6322
MYCT1 (ENSG00000120279)
  log2FoldChange: 3.863
MYH16 (ENSG00000002079)
  log2FoldChange: 1.514
MYOCD (ENSG00000141052)
  log2FoldChange: −0.6639
NA (ENSG00000170647)
  log2FoldChange: −0.6428
NAP1L3 (ENSG00000186310)
  log2FoldChange: 1.339
NBEA (ENSG00000172915)
  log2FoldChange: −0.6249
NBEAP1 (ENSG00000258590)
  log2FoldChange: 1.338
NCALD (ENSG00000104490)
  log2FoldChange: −0.6411
NCAM1 (ENSG00000149294)
  log2FoldChange: −0.6126
NCKAP5L (ENSG00000167566)
  log2FoldChange: −0.6233
NES (ENSG00000132688)
  log2FoldChange: −0.6119
NLRC3 (ENSG00000167984)
  log2FoldChange: 1.713
NLRP1 (ENSG00000091592)
  log2FoldChange: −0.7071
NLRP3 (ENSG00000162711)
  log2FoldChange: 2.515
NLRP5 (ENSG00000171487)
  log2FoldChange: 6.997
NLRP10 (ENSG00000182261)
  log2FoldChange: 1.584
NOSTRIN (ENSG00000163072)
  log2FoldChange: −0.6677
NR2F1 (ENSG00000175745)
  log2FoldChange: −0.6433
NR2F1-AS1 (ENSG00000237187)
  log2FoldChange: −0.5814
OLFML2A (ENSG00000185585)
  log2FoldChange: −0.6037
ONECUT2 (ENSG00000119547)
  log2FoldChange: 1.306
OPRK1 (ENSG00000082556)
  log2FoldChange: 1.22
OVAAL (ENSG00000236719)
  log2FoldChange: 1.572
P2RX6 (ENSG00000099957)
  log2FoldChange: −0.6686
P2RX7 (ENSG00000089041)
  log2FoldChange: −0.5889
PADI1 (ENSG00000142623)
  log2FoldChange: 2.566
PADI3 (ENSG00000142619)
  log2FoldChange: 1.708
PAPPA (ENSG00000182752)
  log2FoldChange: −0.6776
PCDH12 (ENSG00000113555)
  log2FoldChange: 1.386
PCDHB15 (ENSG00000113248)
  log2FoldChange: −0.6069
PDE2A (ENSG00000186642)
  log2FoldChange: 1.553
PDE8A (ENSG00000073417)
  log2FoldChange: −0.6263
PEAR1 (ENSG00000187800)
  log2FoldChange: 1.726
PGM5P2 (ENSG00000277778)
  log2FoldChange: 1.447
PIGR (ENSG00000162896)
  log2FoldChange: 1.274
PIWIL2 (ENSG00000197181)
  log2FoldChange: 1.787
PKHD1L1 (ENSG00000205038)
  log2FoldChange: 1.46
PKIA (ENSG00000171033)
  log2FoldChange: −0.6985
PLA2G7 (ENSG00000146070)
  log2FoldChange: 1.312
PLAT (ENSG00000104368)
  log2FoldChange: −0.6194
PLCD4 (ENSG00000115556)
  log2FoldChange: −0.6812
PLCL1 (ENSG00000115896)
  log2FoldChange: −0.6782
PLCXD2 (ENSG00000240891)
  log2FoldChange: 1.882
PLEKHA2 (ENSG00000169499)
  log2FoldChange: −0.6601
PLIN4 (ENSG00000167676)
  log2FoldChange: −0.6819
POU2F3 (ENSG00000137709)
  log2FoldChange: 1.244

Reference: patent publication US20250197864A1, “LNCRNA TRANSCRIPTS IN MELANOMAGENESIS” (The Regents of the University of California, priority 2021, published 2025)
